In US20260008760A1, “DIPEPTIDYL PEPTIDASE 1 INHIBITORS AND USES THEREOF” (Insmed Incorporated, priority 2024, published 2026):

Key:
active mouse DPP1 enzyme = biological target: T1, active mouse DPP1 enzyme (Mus musculus, UniProt P97821); assay: Mouse DPP1 Enzyme IC50 Assay; type: biochemical; settings: active mouse DPP1 enzyme, H-Gly-Arg-AMC substrate, 10 minutes pre-incubation at 37° C., pH 5.5; average of n runs; read-out: Avg. IC50 (Mouse DPP1 enzyme IC50 value ranges)
T1 construct: Each subunit is composed of an N-terminal fragment, a heavy chain and a light chain; purchased R&D Systems
Protocol: Example 96: Mouse DPP1 Enzyme IC50 Assay
Test articles were applied to active mouse DPP1 enzyme (R&D Systems; Minneapolis, MN) in Assay Buffer (50 mM MES pH 5.5, 50 mM NaCl, 5 mM DTT) in a total reaction volume of 125 μL. 25 μL of compound in Assay Buffer plus […] was first added to 50 μL of active mouse DPP1 enzyme at a concentration of 62.5 pg/μL and allowed to pre-incubate for 10 minutes at 37° C. after which 50 μL of […] H-Gly-Arg-AMC substrate (Bachem; St. Torrance, CA) was added, giving final substrate concentration of 400 µM and a final DMSO concentration of […]. Substrate cleavage was measured for 90 minutes at 37° C., with fluorescence at Excitation/Emission 350/450 nm measured every 5 minutes. DPP1 concentration was interpolated based on its activity relative to a standard curve of recombinant active mouse DPP enzyme. IC50 values for each compound were calculated via the XLFit (IDBS Version 5.3.1.3) Add-On to Microsoft Excel using the four parameter fit equation y=(A+((B−A)/(1+((C/x)^D)))), which appears as equation number 205 (4 Parameter Logistic Model or Sigmoidal Dose-Response Model) in XLFit. Default constraints were used for each Parameter. IC50 was defined as the compound concentration at which 50% of enzyme activity was inhibited when compared to the no-compound control.
In Table 2, *** represent average IC50≤5 nM, ** represents average IC50 in the range of 5-20 nM, and * represents average IC50 in the range of ≥20 nM, where the designations were made solely based on the average value without taking into account of the standard deviations.

DPP1 in HL-60 cells = DPP1 in HL-60 cells (Homo sapiens, UniProt P53634); assay: DPP1 Cell IC50 assay; type: cell-based; design: host or cells: HL-60 cells; settings: 60 min pre-incubation, H-Gly-Phe-AFC substrate, average of n runs, read-out: Avg. IC50 (DPP1 Cell IC50 value ranges)
Procedure, shortened: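 HL-60 cells in PBS (5×10^5 live cells per mL) pre-incubated with compound (0.5% DMSO) 60 min at 37° C, 5% CO2, then H-Gly-Phe-AFC substrate (500 μM stock) added for 30 min. Fluorescence at 400/505 nm; % inhibition vs vehicle wells, IC50 from four-parameter logistic fit.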

human DPP1 enzyme = human DPP1 enzyme (Homo sapiens, UniProt P53634); assay: Human DPP1 Enzyme Single-Point Percent Inhibition Testing (HL-60 lysate); type: biochemical; design: A crude lysate of HL-60 cells (ATCC; Manassas, VA) was used as a source of human DPP1 enzyme; host or cells: HL-60 cells (crude lysate); settings: final compound concentration of 10 nM, 400 μM H-Gly-Arg-AMC, n = 1
Procedure, shortened: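 Enzyme source was HL-60 cell lysate in MES pH 6.0 buffer with NaCl and DTT, pre-incubated 10 min at 37° C with 10 nM compound (final, 1% DMSO). Cleavage of 400 μM H-Gly-Arg-AMC was followed at 350/450 nm over 90 min at 37° C, and percent inhibition was taken against vehicle wells.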

Chain of DPP1 in HL-60 cells (P53634 25-463): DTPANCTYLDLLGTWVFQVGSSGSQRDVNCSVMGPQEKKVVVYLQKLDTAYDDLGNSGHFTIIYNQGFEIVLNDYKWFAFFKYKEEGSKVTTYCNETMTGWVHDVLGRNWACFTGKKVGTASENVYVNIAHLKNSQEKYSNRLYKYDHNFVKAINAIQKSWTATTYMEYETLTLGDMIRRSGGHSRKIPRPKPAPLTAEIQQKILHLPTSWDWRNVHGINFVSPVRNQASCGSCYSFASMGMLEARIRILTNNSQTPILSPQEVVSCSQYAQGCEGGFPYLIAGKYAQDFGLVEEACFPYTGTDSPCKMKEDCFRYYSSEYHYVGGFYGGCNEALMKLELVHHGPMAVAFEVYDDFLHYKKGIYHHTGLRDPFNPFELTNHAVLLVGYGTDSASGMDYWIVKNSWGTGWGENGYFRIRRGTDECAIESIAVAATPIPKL
Chain of human DPP1 enzyme (P53634 25-463): as above
T1 sequence (P97821 25-134 limits assumed): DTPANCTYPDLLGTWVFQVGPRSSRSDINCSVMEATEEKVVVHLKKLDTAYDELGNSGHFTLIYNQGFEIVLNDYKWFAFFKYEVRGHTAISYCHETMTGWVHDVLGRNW
T1 sequence (P97821 231-393 limits assumed): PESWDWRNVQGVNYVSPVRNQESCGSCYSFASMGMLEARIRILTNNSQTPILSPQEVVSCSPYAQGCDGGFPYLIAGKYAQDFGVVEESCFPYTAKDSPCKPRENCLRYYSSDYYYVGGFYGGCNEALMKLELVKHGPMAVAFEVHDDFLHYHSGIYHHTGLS
T1 sequence (P97821 394-462 limits assumed): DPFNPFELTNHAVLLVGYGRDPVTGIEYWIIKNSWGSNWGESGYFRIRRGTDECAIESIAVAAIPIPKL

| IC50 (active mouse DPP1 enzyme) [nM] | IC50 (DPP1 in HL-60 cells) [nM] | inhibition at 0.01 µM (human DPP1 enzyme) [%] | Structure (SMILES) |
| --- | --- | --- | --- |
| > 20 | > 2.5 | ≤ 40 | CN1CCCC2(C1)C(=O)N(C)c1ccc(-c3ccc(C[C@@H](C#N)NC(=O)[C@@H]4CNCCCO4)cc3)cc12 (stereo partly drawn) [Compound 18, (2S)—N-[(1S)-1-cyano-2-(4-{1,1′-dimethyl-2-oxospiro[indole-3,3′-piperidin]-5-yl}phenyl)ethyl]-1,4-oxazepane-2-carboxamide] |
| > 20 | > 2.5 | ≤ 40 | N#C[C@H](Cc1ccc(-c2cnc3c(n2)CCCC3)cc1)NC(=O)[C@@H]1CNCCCO1 [Compound A11, (2S)—N-[(1S)-1-cyano-2-[4-(5,6,7,8-tetrahydroquinoxalin-2-yl)phenyl]ethyl]-1,4-oxazepane-2-carboxamide] |
